From patent US20200011856A1, “Method for Determining the Effectiveness of Treatment for the Prevention of Heartworm Disease” (priority 2017, published 2020)
Where “and” joins values, the source holds several entries; their conditions need not be identical. Identical values can stand only once.

System: Dirofilaria immitis JYD strain (ivermectin-resistant)
Assay: Infection of NSG mice with ivermectin-resistant JYD strain D. immitis L3, treatment, recovery and count of worms
Type: in vivo
Settings: for % Rec, Mean: group mean; for % Rec: individual mice
[1] = 7823 1.0 mg/kg Days 1, 15, 30, 50 JYD Di L3 per NSG mouse, recovery Days 40-42, Table 20
[2] = 7823 5.0 mg/kg Days 1, 15, 30, 50 JYD Di L3 per NSG mouse, recovery Days 40-42, Table 20

`CC(C)C[C@H]1C(=O)O[C@H](C)C(=O)N(C)[C@@H](CC(C)(C)F)C(=O)O[C@H](Cc2ccc(OC(F)(F)F)cc2)C(=O)N(C)[C@@H](CC(C)C)C(=O)O[C@H](C)C(=O)N(C)[C@@H](CC(C)(C)F)C(=O)O[C@H](Cc2ccc(OC(F)(F)F)cc2)C(=O)N1C` [compound 2677] was tested, and the “% Rec, Mean” value (2677 1 mg/kg Days 1, 15, 30, 50 JYD Di L3 per NSG mouse, recovery Days 41 and 42, Table 18) was 8%, the “% Rec” value (2677 1 mg/kg Days 1, 15, 30, 50 JYD Di L3 per NSG mouse, recovery Days 41 and 42, Table 18, 1 mg/kg) was 6% and 4% (3×) and 2% and 18% and 16% and the “% Red” value (in vivo, 1 mg/kg) was “% Red: 81%”. The “Survival, Mean” value (in vivo, 1 mg/kg) was 4.
With `CC(C)C[C@H]1C(=O)O[C@H](C)C(=O)N(C)[C@@H](CC(C)(C)F)C(=O)O[C@H](Cc2ccc(C(F)(F)F)cc2)C(=O)N(C)[C@@H](CC(C)C)C(=O)O[C@H](C)C(=O)N(C)[C@@H](CC(C)(C)F)C(=O)O[C@H](Cc2ccc(C(F)(F)F)cc2)C(=O)N1C` [compound 3615] the “% Red” value (3615 1 mg/kg Days 1, 15, 30, 50 JYD Di L3 per NSG mouse, Table 18, vs Control) was “% Red: 40%”, the “% Rec, Mean” value (3615 1 mg/kg Days 1, 15, 30, 50 JYD Di L3 per NSG mouse, recovery Days 41 and 42, Table 18) was 26% and the “% Rec” value (3615 1 mg/kg Days 1, 15, 30, 50 JYD Di L3 per NSG mouse, recovery Days 41 and 42, Table 18, 1 mg/kg) was 24% (2×) and 26% and 30% and 28% and 36% and 16%. For the same compound, the “Survival, Mean” value (in vivo, 1 mg/kg) was 13.
For `C[C@H]1OC(=O)[C@H](CC(C)(C)C)N(C)C(=O)[C@@H](Cc2ccc(OC(F)(F)F)cc2)OC(=O)[C@H](CC(C)(C)F)N(C)C(=O)[C@@H](C)OC(=O)[C@H](CC(C)(C)C)N(C)C(=O)[C@@H](Cc2ccc(OC(F)(F)F)cc2)OC(=O)[C@H](CC(C)(C)F)N(C)C1=O` [compound 5010], the “% Red” value (5010 1 mg/kg Days 1, 15, 30, 50 JYD Di L3 per NSG mouse, Table 18, vs Control) was “% Red: 33%”, the “% Rec, Mean” value (5010 1 mg/kg Days 1, 15, 30, 50 JYD Di L3 per NSG mouse, recovery Days 41 and 42, Table 18) was 29% and the “% Rec” value (5010 1 mg/kg Days 1, 15, 30, 50 JYD Di L3 per NSG mouse, recovery Days 41 and 42, Table 18, 1 mg/kg) was 24% (2×) and 36% and 14% and 34% and 30% and 38%. The “Survival, Mean” value (in vivo, 1 mg/kg) was 14.
In the case of `C[C@H]1OC(=O)[C@H](CC2CC2)N(C)C(=O)[C@@H](Cc2ccc(C(C)(C)C)cc2)OC(=O)[C@H](CC(C)(C)F)N(C)C(=O)[C@@H](C)OC(=O)[C@H](CC2CC2)N(C)C(=O)[C@@H](Cc2ccc(C(C)(C)C)cc2)OC(=O)[C@H](CC(C)(C)F)N(C)C1=O` [compound 7823], the “% Red” value (7823 0.1 mg/kg Days 1, 15, 30, 50 JYD Di L3 per NSG mouse, Table 20, vs Control) is reported as “% Red: 83%”, the “% Rec, Mean” value (7823 0.1 mg/kg Days 1, 15, 30, 50 JYD Di L3 per NSG mouse, recovery Days 40-42, Table 20) is reported as 4% and the “% Rec” value (7823 0.1 mg/kg Days 1, 15, 30, 50 JYD Di L3 per NSG mouse, recovery Days 40-42, Table 20, 0.1 mg/kg) is reported as 6% (2×) and 0% and 8% and 2%. The “% Red” value (7823 0.25 mg/kg Days 1, 15, 30, 50 JYD Di L3 per NSG mouse, Table 20, vs Control) was “% Red: 91%”, the “% Rec, Mean” value (7823 0.25 mg/kg Days 1, 15, 30, 50 JYD Di L3 per NSG mouse, recovery Days 40-42, Table 20) was 2% and the “% Rec” value (7823 0.25 mg/kg Days 1, 15, 30, 50 JYD Di L3 per NSG mouse, recovery Days 40-42, Table 20, 0.25 mg/kg) was 4% (2×) and 0% (3×). For the same compound, the “% Red” value (7823 0.5 mg/kg Days 1, 15, 30, 50 JYD Di L3 per NSG mouse, Table 20, vs Control) was “% Red: 87%”, the “% Rec, Mean” value (7823 0.5 mg/kg Days 1, 15, 30, 50 JYD Di L3 per NSG mouse, recovery Days 40-42, Table 20) was 3% and the “% Rec” value (7823 0.5 mg/kg Days 1, 15, 30, 50 JYD Di L3 per NSG mouse, recovery Days 40-42, Table 20, 0.5 mg/kg) was 0% (2×) and 8% and 4% and 2%. For the same compound, the “% Red” value (7823 1 mg/kg Days 1, 15, 30, 50 JYD Di L3 per NSG mouse, Table 18, vs Control) was “% Red: 98%”, the “% Red” value (7823 1.0 mg/kg Days 1, 15, 30, 50 JYD Di L3 per NSG mouse, Table 20, vs Control) was “% Red: 100%” and the “% Rec, Mean” value [1] was 0%. For the same compound, the “% Rec” value [1] was 0%, the “% Rec, Mean” value (7823 1 mg/kg Days 1, 15, 30, 50 JYD Di L3 per NSG mouse, recovery Days 41 and 42, Table 18) was 1% and the “% Rec” value (7823 1 mg/kg Days 1, 15, 30, 50 JYD Di L3 per NSG mouse, recovery Days 41 and 42, Table 18, 1 mg/kg) was 2% (2×) and 0% (4×) and 4%. The “% Red” value (7823 5.0 mg/kg Days 1, 15, 30, 50 JYD Di L3 per NSG mouse, Table 20, vs Control) was “% Red: 100%”, the “% Rec, Mean” value [2] was 0% and the “% Rec” value [2] was 0%. For the same compound, the “Survival, Mean” value (in vivo, 0.1 mg/kg) was 2, the “Survival, Mean” value (in vivo, 0.25 mg/kg) was 1 and the “Survival, Mean” value (in vivo, 0.5 mg/kg) was 1. For the same compound, the Survival (in vivo, 5 mg/kg) was 0 and the “Survival, Mean” value (in vivo, 5 mg/kg) was 0.
In the case of `CC(C)C[C@H]1C(=O)O[C@H](C)C(=O)N(C)[C@@H](CC(C)(C)F)C(=O)O[C@H](Cc2ccc(C3CCOCC3)cc2)C(=O)N(C)[C@@H](CC(C)C)C(=O)O[C@H](C)C(=O)N(C)[C@@H](CC(C)(C)F)C(=O)O[C@H](Cc2ccc(C3CCOCC3)cc2)C(=O)N1C` [compound 8800], the “% Red” value (8800 1 mg/kg Days 1, 15, 30, 50 JYD Di L3 per NSG mouse, Table 18, vs Control) is reported as “% Red: 67%”, the “% Rec, Mean” value (8800 1 mg/kg Days 1, 15, 30, 50 JYD Di L3 per NSG mouse, recovery Days 41 and 42, Table 18) is reported as 14% and the “% Rec” value (8800 1 mg/kg Days 1, 15, 30, 50 JYD Di L3 per NSG mouse, recovery Days 41 and 42, Table 18, 1 mg/kg) is reported as 12% (2×) and 16% and 8% and 4% and 26% and 18%. The “Survival, Mean” value (in vivo, 1 mg/kg) was 7.
